According to patent US12378278B2, “Mimetics of heparin oligosaccharides” (Board of Trustees of Michigan State University, priority 2019, dated 2025):
One block for each compound: values may come before it.

Tests used:
FGF-2 = FGF-2 (Homo sapiens, UniProt P09038); experiment: Direct binding to immobilized FGF-2 by surface plasmon resonance (SPR); conditions: FGF-2 immobilized on CDH sensor chip
Excerpt: FGF-2 was immobilized on CDH sensor chip surface through EDC/NHS coupling, and fully sulfated (50), O-sulfated (50z) and N-sulfated (50m) pseudo-hexasaccharides were selected as analytes. […] The SPR results correlated well with that of heparin hexasaccharides (36, 51, 52) (Chem. Eur. J. 2006, 12 (34), 8664-8686).
FGF-2 was immobilized on sensor chip by primary amine coupling reaction. The surface of a CDH sensor chip (ForteBio, Inc., Molecular Devices, USA) was activated using freshly mixed N-hydroxysuccimide (NHS; 0.05 M) and 1-(3-(dimethylamino)propyl)-ethylcarbodiimide (EDC; 0.2 M) (1/1, v/v) in water, followed by the injection of FGF-2 (50 ug/ml) in PBS buffer. The remaining active esters were quenched by ethanolamine (1.0 M). All measurements were performed using 0.01% Tween 20 PBS buffer. Aqueous NaCl (2.0 M) was employed for regeneration to achieve baseline status.

[1] = molecular target: FGF-2-heparin interaction (Homo sapiens, UniProt P09038); experiment: Competition SPR on the FGF-2-heparin interaction; format: binding; conditions: FGF-2 50 nM pre-mixed with compound, biotinylated heparin on SA sensor chip
Procedure: In order to gain more insights into the structure-activity relationship between heparin and FGF-2, the competition assay was performed by the Linhardt group (FIG. 4). Biotinylated heparin was immobilized on the biosensor, and 27 pseudo-hexasaccharides (10 uM) was mixed with FGF-2 (50 nM) individually. […] For IC50 measurements, biotinylated heparin was immobilized on the SA sensor chip as described above, and FGF-2 (50 nM) was pre-mixed with different concentrations of pseudo-hexasaccharides. […] According to competition SPR results, successive fully sulfated disaccharide modules are required for potent competitive activity.

FGF-2-heparin interaction, sequence (P09038 143-288, species assumed): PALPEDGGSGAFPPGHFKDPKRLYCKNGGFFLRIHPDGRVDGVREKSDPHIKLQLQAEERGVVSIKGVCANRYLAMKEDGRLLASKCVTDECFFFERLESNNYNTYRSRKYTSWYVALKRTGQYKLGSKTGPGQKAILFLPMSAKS
FGF-2, sequence (P09038 143-288, species assumed): as above

Compound: CC(=O)NCCOC1OC(C(=O)O)C(OC2OC(COS(=O)(=O)O)C(OCCC(=O)NCCOC3OC(C(=O)O)C(OC4OC(COS(=O)(=O)O)C(OCCC(=O)NCCOC5OC(C(=O)O)C(OC6OC(COS(=O)(=O)O)C(OCCC(=O)O)C(O)C6NS(=O)(=O)O)C(O)C5OS(=O)(=O)O)C(O)C4NS(=O)(=O)O)C(O)C3OS(=O)(=O)O)C(O)C2NC(C)=O)C(O)C1OS(=O)(=O)O (centres unmarked) [Compound 50b]
- IC50 [1]: 4 µM

Compound: N-Acetamidoethyl O-(4-O-carboxyethyl-2-deoxy-2-sulfoamino-1-thio-α-D-glucopyranoside)-(1→4)-O-(6-O-carboxyl-1-thio-α-L-idopyranosiduronate)-(1→4)-O-(2-deoxy-2-sulfoamino-1-thio-α-D-glucopyranoside)-(1→4)-O-(6-O-carboxyl-1-thio-α-L-idopyranosiduronate)-(1→4)-O-(2-deoxy-2-sulfoamino-1-thio-α-D-glucopyranoside)-(1→4)-O-(6-O-carboxyl-1-thio-α-L-idopyranosiduronate) [Compound 50m]
- binding to FGF-2 (in words) (FGF-2): weak signal

Compound: CC(=O)NCCOC1OC(C(=O)O)C(OC2OC(CO)C(OCCC(=O)NCCOC3OC(C(=O)O)C(OC4OC(COS(=O)(=O)O)C(OCCC(=O)NCCOC5OC(C(=O)O)C(OC6OC(COS(=O)(=O)O)C(OCCC(=O)O)C(O)C6NS(=O)(=O)O)C(O)C5OS(=O)(=O)O)C(O)C4NS(=O)(=O)O)C(O)C3OS(=O)(=O)O)C(O)C2NS(=O)(=O)O)C(O)C1O (centres unmarked) [Compound 50a]
- IC50 [1]: 10.8 µM

The next lines start with the values.

- Kd (FGF-2; compound as analyte): 0.94 µM
Compound: CC(=O)NCCOC1OC(C(=O)O)C(OC2OC(COS(=O)(=O)O)C(OCCC(=O)NCCOC3OC(C(=O)O)C(OC4OC(COS(=O)(=O)O)C(OCCC(=O)NCCOC5OC(C(=O)O)C(OC6OC(COS(=O)(=O)O)C(OCCC(=O)O)C(O)C6NC(C)=O)C(O)C5OS(=O)(=O)O)C(O)C4NC(C)=O)C(O)C3OS(=O)(=O)O)C(O)C2NC(C)=O)C(O)C1OS(=O)(=O)O (centres unmarked) [Compound 50z]

- IC50 [1]: 3.5 µM
Compound: CC(=O)NCCOC1OC(C(=O)O)C(OC2OC(COS(=O)(=O)O)C(OCCC(=O)NCCOC3OC(C(=O)O)C(OC4OC(COS(=O)(=O)O)C(OCCC(=O)NCCOC5OC(C(=O)O)C(OC6OC(COS(=O)(=O)O)C(OCCC(=O)O)C(O)C6NC(C)=O)C(O)C5OS(=O)(=O)O)C(O)C4NS(=O)(=O)O)C(O)C3OS(=O)(=O)O)C(O)C2NS(=O)(=O)O)C(O)C1OS(=O)(=O)O (centres unmarked) [Compound 50r]
